One assay has as its target IRAK4 enzyme (Homo sapiens (Human), UniProt Q9NWZ3). Briefly: biochemical. Particulars: IRAK4 enzyme, TR-FRET, 500 μM ATP. The format is biochemical.
In another assay the test system is TNFα. Nature of the assay: cells. The format is cell-based, human. The note with it: Homo sapiens, Monocyte, LPS-stimulated human monocytes, TNFα content; read-out: EC50 TNF.

In patent publication US10336762B2 (priority 2017, dated 2019) one finds IC50 and EC50 data, which are given here for 18 molecules.

Chain of IRAK4 enzyme (Q9NWZ3 whole entry): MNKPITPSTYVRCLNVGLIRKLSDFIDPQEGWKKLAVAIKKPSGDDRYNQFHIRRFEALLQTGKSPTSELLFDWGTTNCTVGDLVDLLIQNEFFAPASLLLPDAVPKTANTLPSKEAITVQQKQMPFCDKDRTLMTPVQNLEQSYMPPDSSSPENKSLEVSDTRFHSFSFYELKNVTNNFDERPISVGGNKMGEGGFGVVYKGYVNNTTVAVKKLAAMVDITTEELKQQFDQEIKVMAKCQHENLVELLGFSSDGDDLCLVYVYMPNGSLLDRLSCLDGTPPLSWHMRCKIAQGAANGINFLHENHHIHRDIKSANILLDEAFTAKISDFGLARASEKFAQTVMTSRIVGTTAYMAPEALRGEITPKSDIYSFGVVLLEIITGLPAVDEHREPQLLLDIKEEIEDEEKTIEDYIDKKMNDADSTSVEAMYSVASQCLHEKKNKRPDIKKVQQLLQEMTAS

For `CC(=O)N1C[C@H]2C[C@H](Nc3cc(-c4ccc5cc(C#N)cnn45)ncc3C(=O)NC[C@@H](F)C(C)(C)O)C[C@H]2C1` [Example 249, 4-(((3aR,5s,6aS)-2-acetyl-octahydrocyclopenta[c]pyrrol-5-yl)amino)-6-(3-cyanopyrrolo[1,2-b]pyridazin-7-yl)-N-((R)-2-fluoro-3-hydroxy-3-methylbutyl) nicotinamide], at IRAK4 enzyme, the IC50 is 2 nM. In the assay with TNFα, the EC50 was 100 nM.

`CC(C)(O)[C@H](F)CNC(=O)c1cnc(-c2ccc3cc(C#N)cnn23)cc1N[C@H]1C[C@@H]2CN(S(C)(=O)=O)C[C@@H]2C1` [Example 250, 6-(3-cyanopyrrolo[1,2-b]pyridazin-7-yl)-N-((R)-2-fluoro-3-hydroxy-3-methylbutyl)-4-(((3aR,5s,6aS)-2-(methylsulfonyl)octa-hydrocyclopenta[c]pyrrol-5-yl)amino) nicotinamide] gave an IC50 against IRAK4 enzyme of 1 nM. Further, the EC50 with TNFα was determined as 37 nM.

With `CC(C)(O)[C@H](F)CNC(=O)c1cnc(-c2ccc3cc(C#N)cnn23)cc1N[C@@H]1C[C@H]2CNC[C@H]2C1` [Example 251, 6-(3-cyanopyrrolo[1,2-b]pyridazin-7-yl)-N-((R)-2-fluoro-3-hydroxy-3-methylbutyl)-4-(((3aR,5s,6aS)-octa-hydrocyclopenta[c]pyrrol-5-yl)amino) nicotinamide], the IC50 against IRAK4 enzyme was 1 nM. In addition, the EC50 in the assay with TNFα is 117 nM.

As to `CC(C)Nc1cc(-c2ccc3cc(C#N)cnn23)ncc1C(=O)NCCC(C)(C)N` [Example 252, N-(3-amino-3-methyl-butyl)-6-(3-cyano-pyrrolo[1,2-b]pyridazin-7-yl)-4-(isopropylamino) nicotinamide], half-maximal inhibition on IRAK4 enzyme (IC50) was put at 2 nM. In the assay with TNFα, the EC50 was 78 nM.

Turning to `CC(=O)N1CCC[C@@H](Nc2cc(-c3ccc4cc(C#N)cnn34)ncc2C(=O)NC[C@@H](F)C(C)(C)O)C1` [Example 253, 4-(((R)-1-acetylpiperidin-3-yl)amino)-6-(3-cyano-pyrrolo[1,2-b]pyridazin-7-yl)-N-((R)-2-fluoro-3-hydroxy-3-methylbutyl)nicotinamide], it took 3 nM to reach half-maximal inhibition on IRAK4 enzyme (IC50). In addition, the EC50 in the assay with TNFα came to 510 nM.

In turn, `CC(C)(O)[C@H](F)CNC(=O)c1cnc(-c2ccc3cc(C#N)cnn23)cc1N[C@@H]1CCCN(S(C)(=O)=O)C1` [Example 254, 6-(3-cyanopyrrolo[1,2-b]pyridazin-7-yl)-N-((R)-2-fluoro-3-hydroxy-3-methylbutyl)-4-(((R)-1-(methylsulfonyl)piperidin-3-yl)amino)nicotinamide] registered an IC50 against IRAK4 enzyme of 17 nM. The EC50 in the assay with TNFα was found to be 2020 nM.

In turn, `CC(C)(O)[C@H](F)CNC(=O)c1cnc(-c2ccc3cc(C#N)cnn23)cc1N[C@@H]1CCCNC1` [Example 255, 6-(3-cyanopyrrolo[1,2-b]pyridazin-7-yl)-N-((R)-2-fluoro-3-hydroxy-3-methylbutyl)-4-(((R)-piperidin-3-yl)amino)nicotinamide] gave an IC50 against IRAK4 enzyme of 14 nM. Besides, the EC50 in the assay on TNFα is 1270 nM.

`CC(=O)N1CCC[C@H](Nc2cc(-c3ccc4cc(C#N)cnn34)ncc2C(=O)NC[C@@H](F)C(C)(C)O)C1` [Example 256, 4-(((S)-1-acetylpiperidin-3-yl)amino)-6-(3-cyano-pyrrolo[1,2-b]pyridazin-7-yl)-N-((R)-2-fluoro-3-hydroxy-3-methylbutyl)nicotinamide] registered an IC50 against IRAK4 enzyme of 2 nM. Besides, the EC50 in the assay on TNFα came to 389 nM.

`CC(C)(O)[C@H](F)CNC(=O)c1cnc(-c2ccc3cc(C#N)cnn23)cc1N[C@H]1CCCN(S(C)(=O)=O)C1` [Example 257, 6-(3-cyanopyrrolo[1,2-b]pyridazin-7-yl)-N-((R)-2-fluoro-3-hydroxy-3-methylbutyl)-4-(((S)-1-(methylsulfonyl)piperidin-3-yl)amino)nicotinamide]: the midpoint of inhibition against IRAK4 enzyme, the IC50, lay at 1 nM. Besides, the EC50 in the assay with TNFα came to 129 nM.

In turn, `CC(C)(O)[C@H](F)CNC(=O)c1cnc(-c2ccc3cc(C#N)cnn23)cc1N[C@H]1CCCNC1` [Example 258, 6-(3-cyanopyrrolo[1,2-b]pyridazin-7-yl)-N-((R)-2-fluoro-3-hydroxy-3-methylbutyl)-4-(((S)-piperidin-3-yl)amino)nicotinamide] showed a concentration for half-maximal inhibition (IC50) against IRAK4 enzyme of 1 nM. For the same molecule, the EC50 in the assay on TNFα is 83 nM.

At IRAK4 enzyme, `CN1CCC[C@@H](Nc2cc(-c3ccc4cc(C#N)cnn34)ncc2C(=O)NC[C@@H](F)C(C)(C)O)C1` [Example 259, 6-(3-cyanopyrrolo[1,2-b]pyridazin-7-yl)-N-((R)-2-fluoro-3-hydroxy-3-methylbutyl)-4-(((R)-1-methylpiperidin-3-yl)amino)nicotinamide] displayed an IC50 of 6 nM. Also, the EC50 in the assay with TNFα was determined as 152 nM.

On to `CN1CCC[C@H](Nc2cc(-c3ccc4cc(C#N)cnn34)ncc2C(=O)NC[C@@H](F)C(C)(C)O)C1` [Example 260, 6-(3-cyanopyrrolo[1,2-b]pyridazin-7-yl)-N-((R)-2-fluoro-3-hydroxy-3-methylbutyl)-4-(((S)-1-methylpiperidin-3-yl)amino)nicotinamide], for which, at IRAK4 enzyme, the IC50 came to 8 nM. Further, in the assay with TNFα, the EC50 stood at 165 nM.

`CC(C)(O)[C@H](F)CNC(=O)c1cnc(-c2ccc3cc(C#N)cnn23)cc1N[C@H]1CCC[C@H]1O` [Example 261, 6-(3-cyanopyrrolo[1,2-b]pyridazin-7-yl)-N-((R)-2-fluoro-3-hydroxy-3-methylbutyl)-4-(((1S,2R)-2-hydroxycyclopentyl)amino)nicotinamide] came in with an IC50 at IRAK4 enzyme of less than 1 nM. For the same molecule, the EC50 in the assay with TNFα stood at 41 nM.

The molecule `CC(C)(O)[C@H](F)CNC(=O)c1cnc(-c2ccc3cc(C#N)cnn23)cc1N[C@H]1CCC[C@@H]1O` [Example 262, 6-(3-cyanopyrrolo[1,2-b]pyridazin-7-yl)-N-((R)-2-fluoro-3-hydroxy-3-methylbutyl)-4-(((1S,2S)-2-hydroxycyclopentyl)amino)nicotinamide] returned an IC50 on IRAK4 enzyme of less than 1 nM. Also, the EC50 in the assay on TNFα is 21 nM.

Take `CC(C)(O)[C@H](F)CNC(=O)c1cnc(-c2ccc3cc(C#N)cnn23)cc1N[C@@H]1CN2CCC1CC2` [Example 263, 6-(3-cyanopyrrolo[1,2-b]pyridazin-7-yl)-N-((R)-2-fluoro-3-hydroxy-3-methylbutyl)-4-(((S)-quinuclidin-3-yl)amino)nicotinamide]: on IRAK4 enzyme, the IC50 amounted to 3 nM. Also, in the assay with TNFα, the EC50 was 193 nM.

In turn, `CC(C)(O)[C@H](F)CNC(=O)c1cnc(-c2ccc3cc(C#N)cnn23)cc1NC1CCC2(CCC(=O)N2)CC1` (stereo partly drawn) [Example 265, 6-(3-cyanopyrrolo[1,2-b]pyridazin-7-yl)-N-((R)-2-fluoro-3-hydroxy-3-methylbutyl)-4-(((5S,8s)-2-oxo-1-azaspiro[4.5]decan-8-yl)amino) nicotinamide] came in with an IC50 against IRAK4 enzyme of 2 nM. For the same molecule, in the assay on TNFα, the EC50 was 690 nM.

For `CC(C)(O)[C@H](F)CNC(=O)c1cnc(-c2ccc3cc(C#N)cnn23)cc1N[C@H]1CN2CCC1CC2` [Example 266, 6-(3-cyanopyrrolo[1,2-b]pyridazin-7-yl)-N-((R)-2-fluoro-3-hydroxy-3-methylbutyl)-4-(((R)-quinuclidin-3-yl)amino)nicotinamide], the IC50 against IRAK4 enzyme is 131 nM. For the same molecule, in the assay on TNFα, the EC50 is 7590 nM.

With `COC(=O)NC12CCC(Nc3cc(-c4ccc5cc(C#N)cnn45)ncc3C(=O)NCC#N)(CC1)CC2` [Example 267, methyl (4-((5-((cyanomethyl)carbamoyl)-2-(3-cyanopyrrolo[1,2-b]pyridazin-7-yl)pyridin-4-yl)amino)bicyclo[2.2.2]octan-1-yl)carbamate], on IRAK4 enzyme, the IC50 was less than 1 nM. The EC50 with TNFα was determined as 19 nM.

The term IC50 denotes the point on the concentration scale where inhibition reaches its midpoint. What is called EC50 is the concentration needed to bring the measured effect to its halfway point.
